Assay results taken from ChEMBL document CHEMBL3885881, “DrugMatrix”.

Species: Rattus norvegicus
Assay: DrugMatrix - Regimen: Daily Repeat
Assay type: toxicity, organism-based, Sprague-Dawley
Design: regimen Daily Repeat, gender Male, age 6-8 weeks
Conditions: in vivo, sc, route subcutaneous, […]; for ABSOLUTE BASOPHIL / ABSOLUTE EOSINOPHIL / ABSOLUTE LYMPHOCYTE / ABSOLUTE MONOCYTE / ABSOLUTE SEGMENTED NEUTROPHIL / BASOPHIL / EOSINOPHIL / ERYTHROCYTE COUNT / HEMATOCRIT / HEMOGLOBIN / LEUKOCYTE COUNT / LYMPHOCYTE / MEAN CORPUSCULAR HEMOGLOBIN / MEAN CORPUSCULAR HEMOGLOBIN CONCENTRATION / MEAN CORPUSCULAR VOLUME / MONOCYTE / NEUTROPHIL / NUCLEATED RED BLOOD CELLS / PLATELET COUNT: tissue Blood; for ALANINE AMINOTRANSFERASE / ALBUMIN / ALKALINE PHOSPHATASE / ASPARTATE AMINOTRANSFERASE / BLOOD UREA NITROGEN / CARBON DIOXIDE / CHLORIDE / CHOLESTEROL / CREATINE PHOSPHOKINASE / CREATININE / GLUCOSE / LACTATE DEHYDROGENASE / LIPASE / PHOSPHORUS / POTASSIUM / SODIUM / TOTAL BILIRUBIN / TOTAL PROTEIN / URIC ACID: tissue Plasma
[1] = 0 mg/kg, 72 h, dose level Control, time 3 day
[2] = 0 mg/kg, 120 h, dose level Control, time 5 day
[3] = 27 mg/kg, 72 h, dose level Low, time 3 day

Compound: Clc1ccc(CSC(Cn2ccnc2)c2ccc(Cl)cc2Cl)cc1 (centres undefined) [SULCONAZOLE]
- ABSOLUTE BASOPHIL [1]: 0 CELLS/uL
- ABSOLUTE EOSINOPHIL [1]: 42.67 CELLS/uL
- ABSOLUTE LYMPHOCYTE [1]: 10202 CELLS/uL
- ABSOLUTE MONOCYTE [1]: 261.5 CELLS/uL
- ABSOLUTE SEGMENTED NEUTROPHIL [1]: 2193.83 CELLS/uL
- BASOPHIL [1]: 0%
- EOSINOPHIL [1]: 0.33%
- ERYTHROCYTE COUNT [1]: 5.63 x10E6/uL
- HEMATOCRIT [1]: 35.35%
- HEMOGLOBIN [1]: 13.07 G/DL
- LEUKOCYTE COUNT [1]: 12.7 x10E3/uL
- LYMPHOCYTE [1]: 81.17%
- MEAN CORPUSCULAR HEMOGLOBIN [1]: 23.23 pg
- MEAN CORPUSCULAR HEMOGLOBIN CONCENTRATION [1]: 36.97 G/DL
- MEAN CORPUSCULAR VOLUME [1]: 62.82 fL
- MONOCYTE [1]: 2%
- NEUTROPHIL [1]: 16.5%
- NUCLEATED RED BLOOD CELLS [1]: 0 /100WBC
- PLATELET COUNT [1]: 1180.33 x10E3/uL
- ALANINE AMINOTRANSFERASE [1]: 48.67 u/L
- ALBUMIN [1]: 4.08 G/DL
- ALKALINE PHOSPHATASE [1]: 360.67 u/L
- ASPARTATE AMINOTRANSFERASE [1]: 85.5 u/L
- BLOOD UREA NITROGEN [1]: 17.83 mg/dL
- CARBON DIOXIDE [1]: 26.17 mmol/L
- CHLORIDE [1]: 101.83 MEQ/L
- CHOLESTEROL [1]: 71 mg/dL
- CREATINE PHOSPHOKINASE [1]: 515.17 u/L
- CREATININE [1]: 0.22 mg/dL
- GLUCOSE [1]: 192.5 mg/dL
- LACTATE DEHYDROGENASE [1]: 214.67 u/L
- LIPASE [1]: 8.5 u/L
- PHOSPHORUS [1]: 12.95 mg/dL
- POTASSIUM [1]: 6.39 MEQ/L
- SODIUM [1]: 142.38 MEQ/L
- TOTAL BILIRUBIN [1]: 0.18 mg/dL
- TOTAL PROTEIN [1]: 5.95 G/DL
- URIC ACID [1]: 1.83 mg/dL
- ABSOLUTE BASOPHIL [2]: 0 CELLS/uL
- ABSOLUTE EOSINOPHIL [2]: 188.5 CELLS/uL
- ABSOLUTE LYMPHOCYTE [2]: 12360.83 CELLS/uL
- ABSOLUTE MONOCYTE [2]: 64.33 CELLS/uL
- ABSOLUTE SEGMENTED NEUTROPHIL [2]: 1986.33 CELLS/uL
- BASOPHIL [2]: 0%
- EOSINOPHIL [2]: 1.33%
- ERYTHROCYTE COUNT [2]: 5.52 x10E6/uL
- HEMATOCRIT [2]: 35.82%
- HEMOGLOBIN [2]: 13.25 G/DL
- LEUKOCYTE COUNT [2]: 14.6 x10E3/uL
- LYMPHOCYTE [2]: 84.5%
- MEAN CORPUSCULAR HEMOGLOBIN [2]: 24.05 pg
- MEAN CORPUSCULAR HEMOGLOBIN CONCENTRATION [2]: 36.98 G/DL
- MEAN CORPUSCULAR VOLUME [2]: 64.97 fL
- MONOCYTE [2]: 0.5%
- NEUTROPHIL [2]: 13.67%
- NUCLEATED RED BLOOD CELLS [2]: 0 /100WBC
- PLATELET COUNT [2]: 1297.83 x10E3/uL
- ALANINE AMINOTRANSFERASE [2]: 51.17 u/L
- ALBUMIN [2]: 4.08 G/DL
- ALKALINE PHOSPHATASE [2]: 393.17 u/L
- ASPARTATE AMINOTRANSFERASE [2]: 111 u/L
- BLOOD UREA NITROGEN [2]: 18.17 mg/dL
- CARBON DIOXIDE [2]: 25 mmol/L
- CHLORIDE [2]: 105.17 MEQ/L
- CHOLESTEROL [2]: 65.5 mg/dL
- CREATINE PHOSPHOKINASE [2]: 911.5 u/L
- CREATININE [2]: 0.21 mg/dL
- GLUCOSE [2]: 183 mg/dL
- LACTATE DEHYDROGENASE [2]: 189 u/L
- LIPASE [2]: 8.33 u/L
- PHOSPHORUS [2]: 12.78 mg/dL
- POTASSIUM [2]: 6.05 MEQ/L
- SODIUM [2]: 144.57 MEQ/L
- TOTAL BILIRUBIN [2]: 0.25 mg/dL
- TOTAL PROTEIN [2]: 5.83 G/DL
- URIC ACID [2]: 1.58 mg/dL
- ABSOLUTE BASOPHIL [3]: 0 CELLS/uL
- ABSOLUTE EOSINOPHIL [3]: 84.67 CELLS/uL
- ABSOLUTE LYMPHOCYTE [3]: 11847.67 CELLS/uL
- ABSOLUTE MONOCYTE [3]: 101 CELLS/uL
- ABSOLUTE SEGMENTED NEUTROPHIL [3]: 2233.33 CELLS/uL
- BASOPHIL [3]: 0%
- EOSINOPHIL [3]: 0.67%
- ERYTHROCYTE COUNT [3]: 5.29 x10E6/uL
- HEMATOCRIT [3]: 32.9%
- HEMOGLOBIN [3]: 12.1 G/DL
- LEUKOCYTE COUNT [3]: 14.27 x10E3/uL
- LYMPHOCYTE [3]: 83.33%
- MEAN CORPUSCULAR HEMOGLOBIN [3]: 22.9 pg
- MEAN CORPUSCULAR HEMOGLOBIN CONCENTRATION [3]: 36.8 G/DL
- MEAN CORPUSCULAR VOLUME [3]: 62.23 fL
- MONOCYTE [3]: 0.67%
- NEUTROPHIL [3]: 15.33%
- NUCLEATED RED BLOOD CELLS [3]: 0 /100WBC
- PLATELET COUNT [3]: 979.33 x10E3/uL
- ALANINE AMINOTRANSFERASE [3]: 50.67 u/L
- ALBUMIN [3]: 4.07 G/DL
- ALKALINE PHOSPHATASE [3]: 355.67 u/L
- ASPARTATE AMINOTRANSFERASE [3]: 89 u/L
- BLOOD UREA NITROGEN [3]: 18 mg/dL
- CARBON DIOXIDE [3]: 26.33 mmol/L
- CHLORIDE [3]: 105.67 MEQ/L
- CHOLESTEROL [3]: 74.33 mg/dL
- CREATINE PHOSPHOKINASE [3]: 269.33 u/L
- CREATININE [3]: 0.22 mg/dL
- GLUCOSE [3]: 174 mg/dL
- LACTATE DEHYDROGENASE [3]: 83.33 u/L
- LIPASE [3]: 8.33 u/L
- PHOSPHORUS [3]: 14.23 mg/dL
- POTASSIUM [3]: 5.88 MEQ/L
- SODIUM [3]: 146.57 MEQ/L
- TOTAL BILIRUBIN [3]: 0.17 mg/dL
- TOTAL PROTEIN [3]: 5.83 G/DL
- URIC ACID [3]: 1.5 mg/dL
